Earlier results as cited in patent publication US11191273B2, “Methods of making pyranopyrans such as pyranopyran nitrile and methods of using pyranopyrans such as pyranopyran nitrile” (The United States of America, as Represented by the …, priority 2018, dated 2021).

System: cork oak (Quercus suber) cuttings
Conditions: literature; cited from earlier work

## C[C@H](O)[C@H]1C=C[C@@H]2OC(=O)C=C[C@@H]2O1 [Diplopyrone, 6-[(1S)-1-hydroxyethyl]-2,4a(S),6(R),8a(S)-tetrahydropyrano-[3,2-b]-pyran-2-one]
  phytotoxic effect: causes necrosis and wilting
